# Laboratory results reported in US20080227730A1, “9A-Carbamoyl and Thiocarbamoyl Azalides With Antimalarial Activity” (GLAXOSMITHKLINE ISTRAZIVACKI CENTAR ZAGREB D.O.O., priority 2005, published 2008).
# Key:
# [1] = test system: Plasmodium falciparum TM91C235; test: In vitro antimalarial [3H]-hypoxanthine incorporation assay, strain TM91C235; assay type: cell-based; conditions: P. falciparum TM91C235 (multiple drug resistant isolate from Thailand), parasites exposed for 72 hours, azithromycin value averaged
# Text: (§1) The in vitro screens for intrinsic antimalarial activity were based on modifications of the procedures described by Desjardins R E, Canfield C J, Haynes J D, Chulay J D. (Quantitative assessment of antimalarial activity in vitro by a semiautomated microdilution technique. Antimicrob Agents Chemother. 1979 December; 16(6):710-8.), Chulay J D, Haynes J D, Diggs C L. (Plasmodium falciparum: Assessment of in vitro growth by [3H]hypoxanthine incorporation. Exp. Parasitol. 1983 55:138-146.), and Milhous W N, Weatherly N F, Bowdre J H, Desjardins R E. (In vitro activities of and mechanisms of resistance to antifol antimalarial drugs. Antimicrob Agents Chemother. 1985 April; 27(4):525-30.). The system was limited to the assessment of the intrinsic activity against the erythrocytic asexual life cycle (blood schizontocides). Two Plasmodium falciparum clones from CDC/Indochina III (W-2) and CDC/Sierra Leone I (D-6) (Oduola A M, Weatherly N F, Bowdre J H, Desjardins R E. Plasmodium falciparum: cloning by single-erythrocyte micromanipulation and heterogeneity in vitro. Exp Parasitol. 1988 66(1):86-95.) were used for all assays. TM91C235, a multiple drug resistant isolate from Thailand, was used for the prescreening assay. W-2 is resistant to chloroquine, quinine, and pyrimethamine and susceptible to mefloquine. D-6 tends to be more resistant to mefloquine and susceptible to chloroquine, quinine, and pyrimethamine. All documents cited in this paragraph are incorporated by reference in their entirety.
# (§2) All parasites were maintained in continuous long term cultures in RPMI-1640 medium supplemented with 6% washed human A positive (A+)(erythrocytes, 25 mM Hepes, […], and 10% heat inactivated A+ human plasma or ALBUMAX® (lipid-rich bovine serum albumin; Invitrogen, Carlsbad, Calif.). All cultures and assays were conducted at 37° C. under an atmosphere of 5% CO2 and 5% O2, with a balance of N2.
# (§3) The prescreening assay uses TM91C235 diluted at a 0.4% parasitemia in a 1% hematocrit in folic acid free and p-aminobenzoic acid free media RPMI-1640 and ALBUMAX®. One mg of the compound is typically dissolved in 100 μl of dimethyl sulfoxide (DMSO). The compound is further diluted in culture medium (FF) with ALBUMAX® for the first initial starting concentration. The rest of the stock drug solution was kept at −70° C. The isolate was preexposed, in duplicate, at three concentrations (25,000 ng/ml, 2,500 ng/ml, and 25 ng/ml) of the test compound for 48 hr in a 96-well microtiter plate (MTP) using the BIOMEK® 2000 automated laboratory workstation. Each MTP contains chloroquine as control to assess the relative activity of the compound and to monitor the response of TM91C235.
# (§4) After the preincubation, [^3H]-hypoxanthine was added to each well of the MTP. (The assay relies on the incorporation of radiolabeled hypoxanthine by the parasites, which indicates reproduction, and inhibition of isotope incorporation was attributed to activity of known or candidate antimalarial drugs). After 72 hr of total incubation time, the MTP were frozen to lyse the erythrocytes and parasites. The parasite DNA was recovered by harvesting the lysate onto glass-fiber filter plates using a Packard FilterMate™ Cell Harvester. The radioactivity was counted on a Packard TopCount™ microplate scintillation counter. The results were recorded as counts per minutes (CPM) per well at each drug concentration divided by the arithmetic mean of the CPM from the three untreated infection parasite control wells.
# (§5) The serial dilution assay was conducted using the same assay conditions and stock solution of the compound used for the preliminary screen, described above. Both the D-6 and the W-2 clones were used. The compounds were diluted two-fold over 11 different concentration ranges with a starting concentration that was based on the preliminary screen. […]
# [2] = test system: Plasmodium falciparum D-6 (CDC/Sierra Leone I); test: In vitro antimalarial [3H]-hypoxanthine incorporation serial dilution assay, clone D6; assay type: cell-based; conditions: P. falciparum D6 clone, parasites exposed for 72 hours, azithromycin value averaged
# Text: as §1, §2, §3, §4, §5
# [3] = test system: Plasmodium falciparum W-2 (CDC/Indochina III); test: In vitro antimalarial [3H]-hypoxanthine incorporation serial dilution assay, clone W2; assay type: cell-based; conditions: P. falciparum W2 clone, parasites exposed for 72 hours, azithromycin value averaged
# Text: as §1, §2, §3, §4, §5
# Plasinodium falciparum = conditions: non-immune patients, Plasmodium falciparum, as compared to controls; cited from earlier work
# Plasmodium vivax = conditions: non-immune patients, as compared to controls; cited from earlier work
# Plasmodium cynomolgi = conditions: rhesus monkey; cited from earlier work
# Plasmodium berghei = conditions: cited from earlier work
# [4] = test system: Plasmodium yoelii nigeriensis; conditions: cited from earlier work
Compound,IC50 [1],IC50 [2],IC50 [3],prophylactic efficacy (Plasinodium falciparum),prophylactic efficacy (Plasmodium vivax),efficacy in monkey model (Plasmodium cynomolgi),activity in mouse model (Plasmodium berghei),activity in mouse model [4]
CC[C@H]1OC(=O)[C@H](C)[C@@H](O[C@H]2C[C@@](C)(OC)[C@@H](O)[C@H](C)O2)[C@H](C)[C@@H](O[C@@H]2O[C@H](C)C[C@H](N(C)C)[C@H]2O)[C@](C)(O)C[C@@H](C)CN(C(=O)Nc2ccc(S(=O)(=O)Nc3ccccc3)cc2)[C@H](C)[C@@H](O)[C@]1(C)O [Compound 1],0.299 µg/mL,0.428 µg/mL,0.448 µg/mL,,,,,
CC[C@H]1OC(=O)[C@H](C)[C@@H](O[C@H]2C[C@@](C)(OC)[C@@H](O)[C@H](C)O2)[C@H](C)[C@@H](O[C@@H]2O[C@H](C)C[C@H](N(C)C)[C@H]2O)[C@](C)(O)C[C@@H](C)CN(C(=O)Nc2ccc(S(=O)(=O)Nc3ccccn3)cc2)[C@H](C)[C@@H](O)[C@]1(C)O [Compound 2],1.03 µg/mL,0.251 µg/mL,> 1.76 µg/mL,,,,,
CC[C@H]1OC(=O)[C@H](C)[C@@H](O[C@H]2C[C@@](C)(OC)[C@@H](O)[C@H](C)O2)[C@H](C)[C@@H](O[C@@H]2O[C@H](C)C[C@H](N(C)C)[C@H]2O)[C@](C)(O)C[C@@H](C)CN(C(=O)NS(=O)(=O)c2ccccc2Cl)[C@H](C)[C@@H](O)[C@]1(C)O [Compound 3],> 1.62 µg/mL,1.11 µg/mL,1.43 µg/mL,,,,,
CC[C@H]1OC(=O)[C@H](C)[C@@H](O[C@H]2C[C@@](C)(OC)[C@@H](O)[C@H](C)O2)[C@H](C)[C@@H](O[C@@H]2O[C@H](C)C[C@H](N(C)C)[C@H]2O)[C@](C)(O)C[C@@H](C)CN(C(=O)Nc2ccc(S(=O)(=O)Nc3cc(C)on3)cc2)[C@H](C)[C@@H](O)[C@]1(C)O [Compound 4],> 1.62 µg/mL,0.12 µg/mL,1.59 µg/mL,,,,,
CC[C@H]1OC(=O)[C@H](C)[C@@H](O)[C@H](C)[C@@H](O[C@@H]2O[C@H](C)C[C@H](N(C)C)[C@H]2O)[C@](C)(O)C[C@@H](C)CN(C(=O)Nc2ccc(S(=O)(=O)Nc3cc(C)on3)cc2)[C@H](C)[C@@H](O)[C@]1(C)O [Compound 5],> 1.62 µg/mL,0.0523 µg/mL,> 1.76 µg/mL,,,,,
CC[C@H]1OC(=O)[C@H](C)[C@@H](O)[C@H](C)[C@@H](O[C@@H]2O[C@H](C)C[C@H](N(C)C)[C@H]2O)[C@](C)(O)C[C@@H](C)CN(C(=O)Nc2ccc(S(=O)(=O)Nc3ccccn3)cc2)[C@H](C)[C@@H](O)[C@]1(C)O [Compound 6],> 1.62 µg/mL,0.0908 µg/mL,> 1.76 µg/mL,,,,,
CC[C@H]1OC(=O)[C@H](C)[C@@H](O[C@H]2C[C@@](C)(OC)[C@@H](O)[C@H](C)O2)[C@H](C)[C@@H](O[C@@H]2O[C@H](C)C[C@H](N(C)C)[C@H]2O)[C@](C)(O)C[C@@H](C)CN(C(=O)Nc2cccc(Cl)c2)[C@H](C)[C@@H](O)[C@]1(C)O [Compound 7],,0.583 µg/mL,1.22 µg/mL,,,,,
CC[C@H]1OC(=O)[C@H](C)[C@@H](O[C@H]2C[C@@](C)(OC)[C@@H](O)[C@H](C)O2)[C@H](C)[C@@H](O[C@@H]2O[C@H](C)C[C@H](N(C)C)[C@H]2O)[C@](C)(O)C[C@@H](C)CN(C(=O)Nc2cccc3ccccc23)[C@H](C)[C@@H](O)[C@]1(C)O [Compound 8],0.712 µg/mL,0.751 µg/mL,1.9 µg/mL,,,,,
CC[C@H]1OC(=O)[C@H](C)[C@@H](O[C@H]2C[C@@](C)(OC)[C@@H](O)[C@H](C)O2)[C@H](C)[C@@H](O[C@@H]2O[C@H](C)C[C@H](N(C)C)[C@H]2O)[C@](C)(O)C[C@@H](C)CN(C(=S)Nc2cccc(Cl)c2)[C@H](C)[C@@H](O)[C@]1(C)O [Compound 9],,0.762 µg/mL,1.5 µg/mL,,,,,
CC[C@H]1OC(=O)[C@H](C)[C@@H](O[C@H]2C[C@@](C)(OC)[C@@H](O)[C@H](C)O2)[C@H](C)[C@@H](O[C@@H]2O[C@H](C)C[C@H](N(C)C)[C@H]2OC(C)=O)[C@](C)(O)C[C@@H](C)CN(C(=O)NC(C)C)[C@H](C)[C@@H](O)[C@]1(C)O [Compound 10],0.353 µg/mL,> 0.797 µg/mL,> 1.76 µg/mL,,,,,
CC[C@H]1OC(=O)[C@H](C)[C@@H](O[C@H]2C[C@@](C)(OC)[C@@H](O)[C@H](C)O2)[C@H](C)[C@@H](O[C@@H]2O[C@H](C)C[C@H](N(C)C)[C@H]2O)[C@](C)(O)C[C@@H](C)CN(C(=S)NCc2ccccc2)[C@H](C)[C@@H](O)[C@]1(C)O [Compound 11],0.304 µg/mL,0.253 µg/mL,0.386 µg/mL,,,,,
CC[C@H]1OC(=O)[C@H](C)[C@@H](O[C@H]2C[C@@](C)(OC)[C@@H](O)[C@H](C)O2)[C@H](C)[C@@H](O[C@@H]2O[C@H](C)C[C@H](N(C)C)[C@H]2O)[C@](C)(O)C[C@@H](C)CN(C)[C@H](C)[C@@H](O)[C@]1(C)O [azithromycin],,,,71.6%,98.9%,active,,
midecamycinin,,,,,,no efficacy,active,active
